These results are taken from patent publication US11320350B2, “Method for agglutinating erythrocytes, method for separating erythrocytes, and hemagglutination reagent” (DENKA SEIKEN CO., LTD., priority 2016, dated 2022).

The structures appear in SMILES notation.

The assay relates to erythrocytes in a whole blood sample. Briefly: hemagglutination evaluation test: whole blood sample added to hemagglutination reagent, rate of agglutination of erythrocytes visually evaluated. The settings on record: citric acid 100 mM in physiologic saline, pH3.0. Also noted: key to Rate of agglutination: +++: Erythrocytes were instantaneously agglutinated into a sufficient size and the agglutinated erythrocytes were precipitated.; ++: Erythrocytes started to agglutinate after leaving to stand for a few seconds, and agglutinated erythrocytes were gradually precipitated.; +: Erythrocytes were agglutinated, but the agglutinates were very small and the agglutination was incomplete.; ±: Only very few erythrocytes were agglutinated.; −: Erythrocytes were hemolyzed without being agglutinated. Format: cell-based. On the procedure:
To 71 mL of distilled water, 10 mL of 10 w/v % sodium taurodeoxycholate hydrate (TDOC), 10 mL of 1 M citric acid, and 9 mL of 10 w/v % sodium chloride were added to prepare a solution containing 100 mM citric acid, 1% TDOC, and 0.9% sodium chloride as final concentrations (hemagglutination reagent). A solution was also prepared in the similar manner except that TDOC and/or sodium chloride were not added (hemagglutination reagent), and effects of the presence and absence of the cholic acid-based surfactant and the salt and the pH range on agglutination of erythrocytes were compared.
After adding 60 μL of a whole blood sample to 400 μL of the hemagglutination reagent, the rate of agglutination of erythrocytes was visually evaluated. The rate of agglutination was evaluated as +++, ++, +, or ± in order of rapidity based on the criteria described below. Hemolysis without agglutination was evaluated as −.
The pH of the hemagglutination reagent was measured using a desktop pH meter (HORIBA) (similarly in the following Examples and Comparative Examples).
Various cholic acid-based surfactants (1% by weight) and citric acid (100 mM) were added to a physiologic saline to prepare hemagglutination reagents (pH3.0) and their abilities to agglutinate erythrocytes were compared.
After adding 60 μL of a whole blood sample to 400 μL of the hemagglutination reagent, the rate of agglutination of erythrocytes was evaluated. The rate of agglutination was evaluated as +++, ++, +, or ± in order of rapidity based on the criteria described below. Hemolysis without agglutination was evaluated as −. The following criteria were the same as those in Examples 1 to 4 and Comparative Examples 1-1 to 4-2.
Sodium taurodeoxycholate hydrate (TDOC) and citric acid (100 mM) were added to a physiologic saline to prepare hemagglutination reagents (pH3.0), and their abilities to agglutinate erythrocytes were compared in the concentration range of TDOC as shown in the table below.
After adding 60 μL of a whole blood sample to 400 μL of the hemagglutination reagent, the rate of agglutination of erythrocytes was evaluated. The rate of agglutination was evaluated as +++, ++, +, or ± in order of rapidity based on the criteria below. Hemolysis without agglutination was evaluated as −. The following criteria were the same as those in Examples 1 to 7 and Comparative Examples 1-1 to 4-2.

`C[C@H](CCC(=O)NCCS(=O)(=O)[O-])[C@H]1CC[C@H]2[C@@H]3CC[C@@H]4C[C@H](O)CC[C@]4(C)[C@H]3C[C@H](O)[C@]12C.O.[Na+]` [TDOC, sodium taurodeoxycholate hydrate]: the Rate of agglutination result is given as “+++” (Concentration of TDOC 0.1 wt %), “+++” (Concentration of TDOC 0.5 wt %), “+++” (Concentration of TDOC 1.0 wt %) and “+++” (Concentration of TDOC 6.0 wt %). In addition, the “effect on hemagglutination (compared among cholic acid-based surfactants)” value (surfactant 1% by weight) is given as “most significant”.
